{"source": "patent US10975303B2", "about": "“Additive for soil conditioning and an agricultural composition containing said additive for plant growth” (priority 2019, dated 2021)", "type_in_all_cases": "in vivo", "key": {"[1]": {"system": "Pigeon pea crop", "assay": "Yield and yield attributes of pigeon pea (Test-5)", "protocol": "The study was carried out with and without the additive of the present disclosure in different plots at a village in […] District (Gujarat). The Pigeon pea crop was planted in 90 cm between two rows and 20 cm of two plants under fields. The result pertaining to plant height, number of branches per plant, number of pods per plant, grain and haulm yield of pigeon pea crop recorded at harvest as influenced by additive of the present disclosure is summarized in Table-7a. Further, the effect of the plant growth regulator and agricultural composition and the comparative results obtained are summarized in Table-7b."}, "[2]": {"system": "onion", "assay": "Growth, yield and yield attributes of onion (Test-3)", "protocol": "The method of testing effect of additive 10 on different properties of soil was similar to the method as disclosed in Test-1 of Experiment-2, except time period which is 2 months instead of 9 months. The effect of additive was tested on soil using additive 10.\nThe effect of the additive 10, agricultural composition and agricultural composition along with fertilizer prepared in accordance with the present disclosure on the growth of onion was studied. Additive 10 prepared in Experiment 1 was used for the study. The study was conducted in the presence and in absence of the additive of the present disclosure to determine the effect of the additive on onion. Further, the effect of agricultural composition and agricultural composition along with fertilizer was studied. The study was carried out at a village in Bhavnagar District (Gujarat). The study was carried out in Two Plots: one plot, the additive of the present disclosure application and the other plot, urea application under Spacing of two rows and plants (15 cm×10 cm).\nThe effect of additive 10, agricultural composition and agricultural composition along with fertilizer on growth, yield and yield attributes of onion was carried and the comparative results obtained are summarized in Table-5a."}, "[3]": {"system": "pigeon pea (Toor)", "assay": "Comparative report of parameters for pigeon pea (Toor), Table 7 (protein, energy, ash, minerals)", "conditions": "pigeon pea (Toor) trial"}}}
{"smiles": "NC(N)=O", "note": "[urea]", "values": [{"measurement": "Grain yield", "setting": "[1]", "result": 1060, "unit": "kg/ha"}, {"measurement": "Haulm yield", "setting": "[1]", "result": 1285, "unit": "kg/ha"}, {"measurement": "Number of branches per plant", "setting": "[1]; at harvest", "result": 10.0}, {"measurement": "Number of pods per plant", "setting": "[1]; at harvest", "result": 172.0}, {"measurement": "Plant height", "setting": "[1]; at harvest", "result": 133.0, "unit": "cm"}, {"measurement": "Ave. bulb weight", "setting": "[2]", "result": 51.50, "unit": "g"}, {"measurement": "Bulb yield", "setting": "[2]", "result": 34.30, "unit": "t/ha"}, {"measurement": "Leaf area", "setting": "[2]", "result": 930, "unit": "cm²"}, {"measurement": "Plant height", "setting": "[2]", "result": 56.00, "unit": "cm"}, {"measurement": "Energy", "setting": "[3]", "result": 355.01, "unit": "Kcal/100 gm"}, {"measurement": "Total Ash", "setting": "[3]; LOQ 0.1", "result": 3.94, "unit": "gm/100 gm"}, {"measurement": "Total Protein", "setting": "[3]; LOQ 0.5", "result": 16.47, "unit": "gm/100 gm"}, {"measurement": "Calcium (as Ca)", "setting": "[3]; LOQ 2.5", "result": 508.85, "unit": "mg/kg"}, {"measurement": "Iron (as Fe)", "setting": "[3]; LOQ 2.5", "result": 11.48, "unit": "mg/kg"}, {"measurement": "Manganese (as Mn)", "setting": "[3]; LOQ 2.5", "result": 4.71, "unit": "mg/kg"}, {"measurement": "Zinc (as Zn)", "setting": "[3]; LOQ 2.5", "result": 10.99, "unit": "mg/kg"}]}
